In patent publication US7728012B2, “Carboxamide compounds and their use as calpain inhibitors” (Abbott GmbH & Co. KG, priority 2006, dated 2010):

How the values were obtained:
Type in all cases: biochemical
[1] = biological target: T1, cathepsin L isolated from human liver (Homo sapiens, UniProt P07711); test: Cathepsin L kinetic fluorescence enzyme inhibition assay; settings: selectivity ratio versus calpain I
T1 construct: cathepsin L—isolated from human liver; purchased Calbiochem 219402; host or cells: human liver (tissue isolate)
Outline: (§1)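 Kinetic fluorescence (ex 390/em 460 nm) at room temperature in 50 mM MES, 2 mM EDTA, 0.05% Brij 35, 2.5 mM L-cysteine, pH 6.0. Cathepsin B (liver, 0.25 nM) with 100 μM Z-Phe-Arg-AMC; cathepsin L (liver, 1 nM) with 2 μM Z-Phe-Arg-AMC; recombinant E. coli cathepsin S (0.5 nM) with 20 μM Z-Val-Val-Arg-AMC. Ki via Cheng-Prusoff.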

[2] = biological target: T2, recombinant human cathepsin S (Homo sapiens, UniProt P25774); test: Cathepsin S kinetic fluorescence enzyme inhibition assay; settings: selectivity ratio versus calpain I
T2 construct: purchased Calbiochem 219343; host or cells: E. coli
Outline: as §1

[3] = biological target: T3, cathepsin K activated from recombinant human procathepsin K (Homo sapiens, UniProt P43235); test: Cathepsin K kinetic fluorescence enzyme inhibition assay; settings: selectivity ratio versus calpain I
T3 construct: purchased Calbiochem 342001; host or cells: E. coli
T3 sequence (P43235 115-329): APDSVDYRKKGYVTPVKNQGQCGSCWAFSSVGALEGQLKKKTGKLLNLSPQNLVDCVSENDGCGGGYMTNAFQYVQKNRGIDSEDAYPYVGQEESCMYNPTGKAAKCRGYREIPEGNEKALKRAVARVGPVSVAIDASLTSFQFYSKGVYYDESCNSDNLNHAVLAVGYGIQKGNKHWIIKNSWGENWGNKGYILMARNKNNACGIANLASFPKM

[4] = biological target: T4, cathepsin B isolated from human liver (Homo sapiens, UniProt P07858); test: Cathepsin B kinetic fluorescence enzyme inhibition assay; settings: selectivity ratio versus calpain I
T4 construct: cathepsin B—isolated from human liver; purchased Calbiochem 219362; host or cells: human liver (tissue isolate)
Outline: as §1

[5] = biological target: T5, calpain-I isolated from human erythrocytes (Homo sapiens, UniProt P07384); test: Calpain I kinetic fluorescence enzyme inhibition assay; settings: apparent Ki from IC50 by Cheng-Prussoff; average of 2 to 4 dose-effect plots
T5 construct: calpain-I—isolated from human erythrocytes; purchased Calbiochem 208713; host or cells: human erythrocytes (tissue isolate)
T5 sequence (P07384 1-714): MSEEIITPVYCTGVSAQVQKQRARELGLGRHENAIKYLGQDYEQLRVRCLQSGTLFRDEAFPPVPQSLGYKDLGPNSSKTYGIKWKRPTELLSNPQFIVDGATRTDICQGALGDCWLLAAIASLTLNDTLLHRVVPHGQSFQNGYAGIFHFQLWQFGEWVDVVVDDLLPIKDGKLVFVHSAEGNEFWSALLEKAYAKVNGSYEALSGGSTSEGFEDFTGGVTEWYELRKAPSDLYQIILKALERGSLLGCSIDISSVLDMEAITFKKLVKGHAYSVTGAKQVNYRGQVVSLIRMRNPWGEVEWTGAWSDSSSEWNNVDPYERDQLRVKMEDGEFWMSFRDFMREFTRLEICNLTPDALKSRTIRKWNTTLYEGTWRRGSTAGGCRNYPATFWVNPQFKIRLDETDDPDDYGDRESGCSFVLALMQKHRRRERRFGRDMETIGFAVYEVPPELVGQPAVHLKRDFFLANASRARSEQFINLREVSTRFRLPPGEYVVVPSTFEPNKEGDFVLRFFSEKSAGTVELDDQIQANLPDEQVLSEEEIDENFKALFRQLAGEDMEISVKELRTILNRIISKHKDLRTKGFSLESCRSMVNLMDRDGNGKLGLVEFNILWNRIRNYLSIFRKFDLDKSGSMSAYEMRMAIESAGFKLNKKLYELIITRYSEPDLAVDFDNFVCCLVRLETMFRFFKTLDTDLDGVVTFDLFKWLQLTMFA
T5 sequence (P04632 1-268 partner): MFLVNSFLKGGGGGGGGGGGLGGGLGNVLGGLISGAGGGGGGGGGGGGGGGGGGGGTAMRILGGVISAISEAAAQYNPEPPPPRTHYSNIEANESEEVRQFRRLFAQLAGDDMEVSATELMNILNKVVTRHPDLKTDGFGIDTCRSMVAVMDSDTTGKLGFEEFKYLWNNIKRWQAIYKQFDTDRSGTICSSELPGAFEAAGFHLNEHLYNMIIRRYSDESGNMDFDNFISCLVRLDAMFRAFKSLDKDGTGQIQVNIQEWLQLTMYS

T2 sequence (P25774 115-331): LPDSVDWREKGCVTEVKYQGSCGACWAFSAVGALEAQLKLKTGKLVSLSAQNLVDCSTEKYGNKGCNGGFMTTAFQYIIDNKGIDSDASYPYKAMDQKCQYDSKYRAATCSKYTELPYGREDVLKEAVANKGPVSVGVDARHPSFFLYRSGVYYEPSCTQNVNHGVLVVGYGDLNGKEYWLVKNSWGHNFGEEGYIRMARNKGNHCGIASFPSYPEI
T1 sequence (P07711 114-333): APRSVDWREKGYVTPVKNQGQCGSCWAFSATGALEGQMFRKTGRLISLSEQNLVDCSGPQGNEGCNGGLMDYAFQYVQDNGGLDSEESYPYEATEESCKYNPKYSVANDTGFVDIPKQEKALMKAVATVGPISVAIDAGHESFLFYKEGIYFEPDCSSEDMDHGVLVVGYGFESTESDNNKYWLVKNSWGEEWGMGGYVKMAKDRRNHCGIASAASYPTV

Sel cat. K (Ki(cathepsin K)/Ki(calpain) ratio) [3]	Sel cat. B (Ki(cathepsin B)/Ki(calpain) ratio) [4]	Ki [5] [nM]	Structure (SMILES)	Sel cat. L (Ki(cathepsin L)/Ki(calpain) ratio) [1]	Sel cat. S (Ki(cathepsin S)/Ki(calpain) ratio) [2]
+ (10≦Ki(cathepsin K)/Ki(calpain)<30)	+ (10≦Ki(cathepsin B)/Ki(calpain)<30)	40 to 100	NC(=O)C(=O)C(Cc1ccc(Cl)cc1)NC(=O)c1cccnc1-n1ccc(-c2ccccc2)n1 (stereo not drawn) [Example 50, N-[3-Amino-1-(4-chlorobenzyl)-2,3-dioxopropyl]-2-(3-phenyl-1H-pyrazol-1-yl)nicotinamide]	+ (30≦Ki(cathepsin L)/Ki(calpain)<50)	+ (50≦Ki(cathepsin S)/Ki(calpain)<100)
+ (10≦Ki(cathepsin K)/Ki(calpain)<30)	+ (10≦Ki(cathepsin B)/Ki(calpain)<30)	40 to 100	NC(=O)C(=O)C(Cc1ccccc1)NC(=O)c1cccnc1-n1ccc(-c2cc(C(F)(F)F)ccc2CN2CCOCC2)n1 (stereo not drawn) [Example 163, N-[3-Amino-2,3-dioxo-1-(phenylmethyl)propyl]-2-{3-[2-(morpholin-4-ylmethyl)-5-(trifluoromethyl)phenyl]-1H-pyrazol-1-yl}pyridine-3-carboxamide]	+ (30≦Ki(cathepsin L)/Ki(calpain)<50)	++ (Ki(cathepsin S)/Ki(calpain) ratio of ≧100)
+ (10≦Ki(cathepsin K)/Ki(calpain)<30)	+ (10≦Ki(cathepsin B)/Ki(calpain)<30)	≤ 40	NC(=O)C(=O)[C@H](Cc1ccccc1)NC(=O)c1cccnc1-n1ccc(-c2ccccc2)n1 [Example 107, N-[(1S)-3-Amino-2,3-dioxo-1-(phenylmethyl)propyl]-2-(3-phenyl-1H-pyrazol-1-yl)pyridine-3-carboxamide]	++ (Ki(cathepsin L)/Ki(calpain) ratio of ≧50)	++ (Ki(cathepsin S)/Ki(calpain) ratio of ≧100)

Structure (SMILES)	Sel cat. K (Ki(cathepsin K)/Ki(calpain) ratio) [3]	Sel cat. B (Ki(cathepsin B)/Ki(calpain) ratio) [4]	Ki [5] [nM]	Sel cat. L (Ki(cathepsin L)/Ki(calpain) ratio) [1]	Sel cat. S (Ki(cathepsin S)/Ki(calpain) ratio) [2]
NC(=O)C(=O)C(Cc1ccccc1)NC(=O)c1cccnc1-n1ccc(-c2ccc3c(c2)OC(F)(F)O3)n1 (stereo not drawn) [Example 118, N-[3-Amino-2,3-dioxo-1-(phenylmethyl)propyl]-2-[3-(2,2-difluoro-1,3-benzodioxol-5-yl)-1H-pyrazol-1-yl]pyridine-3-carboxamide]	+ (10≦Ki(cathepsin K)/Ki(calpain)<30)	++ (Ki(cathepsin B)/Ki(calpain) ratio of ≧30)	≤ 40	++ (Ki(cathepsin L)/Ki(calpain) ratio of ≧50)	++ (Ki(cathepsin S)/Ki(calpain) ratio of ≧100)
NC(=O)C(=O)C(Cc1ccccc1)NC(=O)c1cccnc1-n1ccc(-c2cccc3c2OCC3)n1 (stereo not drawn) [Example 164, N-[3-Amino-2,3-dioxo-1-(phenylmethyl)propyl]-2-[3-(2,3-dihydro-1-benzofuran-7-yl)-1H-pyrazol-1-yl]pyridine-3-carboxamide]	++ (Ki(cathepsin K)/Ki(calpain) ratio of ≧30)	+ (10≦Ki(cathepsin B)/Ki(calpain)<30)	≤ 40	++ (Ki(cathepsin L)/Ki(calpain) ratio of ≧50)	++ (Ki(cathepsin S)/Ki(calpain) ratio of ≧100)
NC(=O)C(=O)C(Cc1ccccc1)NC(=O)c1cccnc1-n1ccc(-c2ccc(N3CCOCC3)cc2Cl)n1 (stereo not drawn) [Example 99, N-[3-Amino-2,3-dioxo-1-(phenylmethyl)propyl]-2-[3-(2-chloro-4-morpholin-4-ylphenyl)-1H-pyrazol-1-yl]pyridine-3-carboxamide]	++ (Ki(cathepsin K)/Ki(calpain) ratio of ≧30)	++ (Ki(cathepsin B)/Ki(calpain) ratio of ≧30)	≤ 40	++ (Ki(cathepsin L)/Ki(calpain) ratio of ≧50)	++ (Ki(cathepsin S)/Ki(calpain) ratio of ≧100)
